Data set [1] relates to M. Smegmatis ATCC607. Put plainly: In-vitro method for testing compounds for anti-bacterial activity against strain M. Smegmatis ATCC607. The format is cell-based. Particulars: M. smegmatis growth inhibition, 48 hours at 37° C., Alamar Blue fluorescence; for IC50: Mycolicibacterium smegmatis, ATCC607, 48 h. How it is done: D.2. In-vitro method for testing compounds for anti-bacterial activity against strain M. Smegmatis ATCC607.
Flat-bottom, sterile 96-well plastic microtiter plates were filled with 180 μl of sterile deionized water, supplemented with 0.25% BSA. Subsequently, stock solutions (7.8× final test concentration) of compounds were added in 45 μl volumes to a series of duplicate wells in column 2 so as to allow evaluation of their effects on bacterial growth. Serial five-fold dilutions (45 μl in 180 μl) were made directly in the microtiter plates from column 2 to 11 using a customised robot system (Zymark Corp., Hopkinton, Mass.). Pipette tips were changed after every 3 dilutions to minimize pipetting errors with high hydrophobic compounds. Untreated control samples with (column 1) and without (column 12) inoculum were included in each microtiter plate. Approximately 250 CFU per well of bacteria inoculum, in a volume of 100 μl in 2.8× Mueller-Hinton broth medium, was added to the rows A to H, except column 12. The same volume of broth medium without inoculum was added to column 12 in row A to H. The cultures were incubated at 37° C. for 48 hours in a humidified 5% CO2 atmosphere (incubator with open air valve and continuous ventilation). At the end of incubation, two days after inoculation, the bacterial growth was quantitated fluorometrically. Therefore Alamar Blue (10×) was added to all wells in a volume of 20 μl and plates were incubated for another 2 hours at […]
The fluorescence was read in a computer-controlled fluorometer (Cytofluor, Biosearch) at an excitation wavelength of 530 nm and an emission wavelength of 590 nm (gain 30). The % growth inhibition achieved by the compounds was calculated according to standard methods. The pIC50 was defined as the 50% inhibitory concentration for bacterial growth.
(In general: Alamar Blue is a resazurin reagent that responds to reducing activity.)

Usually melting point stands for the temperature, or range, at which the solid turns liquid. As usually defined, the IC50 is the concentration that gives 50% inhibition. Lower therefore signals inhibition by little substance. What is called pIC50 is the negative decadic logarithm of the IC50, by convention in mol/L. Low readings indicate a large IC50, high ones a small IC50.

`CCN1CC[C@@](c2ccc(F)cc2F)(C(c2ccccc2)c2cc3cc(Br)ccc3nc2OC)OC1=O` (single isomer, unassigned) [Compound 19] had a melting point of 216 °C.
In turn, `COc1nc2ccc(Cl)cc2cc1[C@@H](c1ccccc1)[C@@]1(c2cccc3ccccc23)CC[N+](C)(C)CO1.[I-]` (single isomer, unassigned) came in with a melting point of 195 °C.
For `COc1nc2ccc(Br)cc2cc1[C@H](c1ccccc1)C1(c2ccccc2)CCN(C)CO1` (single isomer, unassigned) [Compound 12], the melting point is 168 °C. The same molecule had an IC50 in data set [1] of 158 nM.
For `COc1nc2ccc(Br)cc2cc1[C@@H](c1ccccc1)[C@@]1(c2cccc3ccccc23)CCN(C)CO1` (single isomer, unassigned) [Compound 11], in that order: 108 °C and 316 nM.
For `COc1nc2ccc(-c3ccccc3)cc2cc1[C@@H](c1ccccc1)[C@]1(c2cccc3ccccc23)CCN(C)CO1` (single isomer, unassigned) [Compound 6], in data set [1], 25.1 nM corresponded to half-maximal inhibition (IC50).
As for `COc1nc2ccc(Br)cc2cc1[C@@H](c1ccccc1)[C@]1(c2cccc3ccccc23)CCN(C)CO1` (single isomer, unassigned) [Compound 1], the melting point was 112 °C. The molecule also had an IC50 in data set [1] of 3.16 nM.
`COc1nc2ccc(-c3ccccc3)cc2cc1[C@@H](c1ccccc1)[C@@]1(c2cccc3ccccc23)CCN(C)CO1` (single isomer, unassigned) [Compound 13] gave an IC50 in data set [1] of 316 nM.
`COc1ccc2nc(OC)c([C@@H](c3ccccc3)[C@@]3(c4cccc5ccccc45)CCN(C)CO3)cc2c1` (single isomer, unassigned) [Compound 14] showed an IC50 in data set [1] of 316 nM.
`CCN1CC[C@](c2ccc(F)cc2F)(C(c2ccccc2)c2cc3cc(Br)ccc3nc2OC)OC1=O` (single isomer, unassigned) [Compound 5] showed a melting point of 192 °C. Inhibition in data set [1] was half-maximal at 20000 nM (IC50).
`COc1nc2ccc(Cl)cc2cc1[C@@H](c1ccccc1)[C@@]1(c2cccc3ccccc23)CCN(C)CO1` (single isomer, unassigned) [Compound 3] returned a melting point of 189 °C. This molecule came in with a pIC50 in data set [1] of 5.1.
In data set [1], `COc1nc2ccc(-c3ccco3)cc2cc1[C@@H](c1ccccc1)[C@@]1(c2cccc3ccccc23)CCN(C)CO1` (single isomer, unassigned) [Compound 16] gave an IC50 of 316 nM.
The molecule `COc1nc2ccc(Cl)cc2cc1[C@@H](c1ccccc1)[C@@]1(c2cccc3ccccc23)CCN(C)CO1` (single isomer, unassigned) [Compound 7] showed a pIC50 in data set [1] of 7.9.
`COc1ccc2nc(OC)c([C@@H](c3ccccc3)[C@]3(c4cccc5ccccc45)CCN(C)CO3)cc2c1` (single isomer, unassigned) [Compound 8] gave an IC50 in data set [1] of 63.1 nM.
Molecule `COc1nc2ccc(Cl)cc2cc1[C@@H](c1ccccc1)[C@]1(c2cccc3ccccc23)CC[N+](C)(C)CO1.[I-]` (single isomer, unassigned) gave a melting point of 211 °C.
As for `COc1nc2ccc(Br)cc2cc1[C@@H](c1ccc(Cl)cc1)[C@]1(c2cccc3ccccc23)CCN(C)CO1` (single isomer, unassigned) [Compound 2], the melting point is 201 °C. The same molecule had an IC50 in data set [1] of 63.1 nM.
`COc1nc2ccc(Br)cc2cc1[C@@H](c1ccc(Cl)cc1)[C@@]1(c2cccc3ccccc23)CCN(C)CO1` (single isomer, unassigned) [Compound 17] showed an IC50 in data set [1] of 316 nM.

The values are drawn from patent publication US7338949B2, “Mycobacterial inhibitors” (Janssen Pharmaceutica N.V., priority 2004, dated 2008).
